We go through 2 molecules from publication PMC6858497 (The Journal of physiology, 2019).

Where “and” joins values, the source holds several entries; their conditions need not be identical. Equal entries are not always repeated. Where two headings read alike, the source gives them in different places.

Assay [1] deals with GluN1–1b/2B (Rattus norvegicus, UniProt P35439+Q00960). Briefly: Two-electrode voltage-clamp recordings, Xenopus oocytes. As to conditions: isoform 1b. It is filed as cell-based. For orientation: In two-electrode clamp one electrode senses voltage and the other passes current.
The target of assay [2] is GluN1–1a/2BC1/2DC2 (Rattus norvegicus, UniProt P35439+Q00959+Q00960+Q62645, A876H/F846L/G856D/H848F/K857R/M851T/M860L/Q845K/R869K/V861L/V866F). The assay is described as above. It is filed as cell-based. As to conditions: for Spermine modulation (% control): 100 μM spermine, −20 mV.
The target in assay [3] is GluN1–1a/2B (Rattus norvegicus, UniProt P35439+Q00960). The description is as above. To be noted: for Spermine modulation (% control): 100 μM spermine, −20 mV. It is filed as cell-based.
Assay [4] has as its system NMDA receptors in cerebellar Golgi cells (thought to be mainly GluN1/2B/2D). To be noted: single-channel recordings, outside-out patches; ref Brickley et al., 2003; cited from earlier work.
Assay [5] concerns the target GluN1–1b/2BC1/2DC2 (Rattus norvegicus, UniProt P35439+Q00959+Q00960+Q62645, A876H/F846L/G856D/H848F/K857R/M851T/M860L/Q845K/R869K/V861L/V866F). Nature of the assay: Two-electrode voltage-clamp recordings, Xenopus oocytes. It is filed as cell-based. To be noted: isoform 1b.
For assay [6], the target named is GluN1–1a/2AC1/2BC2 (Rattus norvegicus, UniProt P35439+Q00959+Q00960, A876H/F846L/G856D/H848F/K857R/M851T/M860L/Q845K/V861L). As to conditions: 100 μM spermine, −20 mV.
The subject of assay [7] is NMDAR-EPSCs in hippocampal interneurons (CA1 s.r./s.l.m.). Nature of the assay: Whole-cell patch-clamp of NMDAR-EPSCs in acute hippocampal slices. In kind it is cell-based, mouse. (In general: In patch-clamp work, channel activity is measured electrically.)
The subject of assay [8] is NMDAR-EPSCs in hippocampal CA1 pyramidal cells. The description is as above. In kind it is cell-based, mouse. To be noted: 100 μM; +40 mV; P21–28 slices.
For assay [9], the target named is GluN1–1a/2D (Rattus norvegicus, UniProt P35439+Q62645). Nature of the assay: Two-electrode voltage-clamp recordings, Xenopus oocytes. In kind it is cell-based. To be noted: for Spermine modulation (% control): 100 μM spermine, −20 mV.
Assay [10] concerns the target GluN1–1a/2A (Rattus norvegicus, UniProt P35439+Q00959). As to conditions: 100 μM spermine, −20 mV.
[11] abbreviates: at 100 μM, pH 7.4, holding potential −20 mV, isoform 1a.

Sequence of GluN1–1a/2B (Q00960 27-1482, other chains not shown): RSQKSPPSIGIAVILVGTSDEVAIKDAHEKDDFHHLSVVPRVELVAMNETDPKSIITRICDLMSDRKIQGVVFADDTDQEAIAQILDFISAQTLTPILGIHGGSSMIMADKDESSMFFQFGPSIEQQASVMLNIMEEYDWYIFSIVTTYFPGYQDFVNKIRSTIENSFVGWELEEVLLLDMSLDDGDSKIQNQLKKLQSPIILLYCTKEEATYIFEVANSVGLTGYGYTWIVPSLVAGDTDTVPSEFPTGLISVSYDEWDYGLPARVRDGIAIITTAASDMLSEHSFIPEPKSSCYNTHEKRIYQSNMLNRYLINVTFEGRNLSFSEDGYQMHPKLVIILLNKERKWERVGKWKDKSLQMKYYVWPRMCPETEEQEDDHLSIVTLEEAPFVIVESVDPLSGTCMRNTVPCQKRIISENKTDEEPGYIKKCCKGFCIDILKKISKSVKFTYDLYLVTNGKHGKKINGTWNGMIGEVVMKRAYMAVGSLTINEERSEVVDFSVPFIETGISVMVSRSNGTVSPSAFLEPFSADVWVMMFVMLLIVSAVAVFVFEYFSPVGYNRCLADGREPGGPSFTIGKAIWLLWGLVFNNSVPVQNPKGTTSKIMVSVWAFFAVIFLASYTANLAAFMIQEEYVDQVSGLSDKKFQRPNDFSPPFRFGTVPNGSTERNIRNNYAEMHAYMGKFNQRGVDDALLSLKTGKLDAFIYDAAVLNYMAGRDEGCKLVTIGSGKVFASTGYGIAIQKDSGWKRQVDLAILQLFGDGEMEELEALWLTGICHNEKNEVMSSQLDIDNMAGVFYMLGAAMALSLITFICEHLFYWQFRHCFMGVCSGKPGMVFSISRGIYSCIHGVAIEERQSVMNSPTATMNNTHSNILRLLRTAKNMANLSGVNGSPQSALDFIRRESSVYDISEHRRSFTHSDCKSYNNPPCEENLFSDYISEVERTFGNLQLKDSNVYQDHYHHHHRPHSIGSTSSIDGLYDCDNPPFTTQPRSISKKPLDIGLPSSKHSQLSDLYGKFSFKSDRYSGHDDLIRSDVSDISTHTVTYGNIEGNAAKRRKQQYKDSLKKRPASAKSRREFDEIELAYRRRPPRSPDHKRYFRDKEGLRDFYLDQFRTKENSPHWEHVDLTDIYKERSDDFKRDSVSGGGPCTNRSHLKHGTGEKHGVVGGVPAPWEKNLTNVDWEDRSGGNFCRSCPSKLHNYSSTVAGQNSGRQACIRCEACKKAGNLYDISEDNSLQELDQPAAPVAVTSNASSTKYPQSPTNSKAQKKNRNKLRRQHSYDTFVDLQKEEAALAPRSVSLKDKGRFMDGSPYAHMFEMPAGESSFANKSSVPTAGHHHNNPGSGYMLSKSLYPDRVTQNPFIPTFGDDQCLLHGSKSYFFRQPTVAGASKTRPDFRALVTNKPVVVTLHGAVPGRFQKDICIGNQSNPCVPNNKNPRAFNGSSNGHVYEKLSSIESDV
Sequence of GluN1–1a/2A (Q00959 23-1464, other chains not shown): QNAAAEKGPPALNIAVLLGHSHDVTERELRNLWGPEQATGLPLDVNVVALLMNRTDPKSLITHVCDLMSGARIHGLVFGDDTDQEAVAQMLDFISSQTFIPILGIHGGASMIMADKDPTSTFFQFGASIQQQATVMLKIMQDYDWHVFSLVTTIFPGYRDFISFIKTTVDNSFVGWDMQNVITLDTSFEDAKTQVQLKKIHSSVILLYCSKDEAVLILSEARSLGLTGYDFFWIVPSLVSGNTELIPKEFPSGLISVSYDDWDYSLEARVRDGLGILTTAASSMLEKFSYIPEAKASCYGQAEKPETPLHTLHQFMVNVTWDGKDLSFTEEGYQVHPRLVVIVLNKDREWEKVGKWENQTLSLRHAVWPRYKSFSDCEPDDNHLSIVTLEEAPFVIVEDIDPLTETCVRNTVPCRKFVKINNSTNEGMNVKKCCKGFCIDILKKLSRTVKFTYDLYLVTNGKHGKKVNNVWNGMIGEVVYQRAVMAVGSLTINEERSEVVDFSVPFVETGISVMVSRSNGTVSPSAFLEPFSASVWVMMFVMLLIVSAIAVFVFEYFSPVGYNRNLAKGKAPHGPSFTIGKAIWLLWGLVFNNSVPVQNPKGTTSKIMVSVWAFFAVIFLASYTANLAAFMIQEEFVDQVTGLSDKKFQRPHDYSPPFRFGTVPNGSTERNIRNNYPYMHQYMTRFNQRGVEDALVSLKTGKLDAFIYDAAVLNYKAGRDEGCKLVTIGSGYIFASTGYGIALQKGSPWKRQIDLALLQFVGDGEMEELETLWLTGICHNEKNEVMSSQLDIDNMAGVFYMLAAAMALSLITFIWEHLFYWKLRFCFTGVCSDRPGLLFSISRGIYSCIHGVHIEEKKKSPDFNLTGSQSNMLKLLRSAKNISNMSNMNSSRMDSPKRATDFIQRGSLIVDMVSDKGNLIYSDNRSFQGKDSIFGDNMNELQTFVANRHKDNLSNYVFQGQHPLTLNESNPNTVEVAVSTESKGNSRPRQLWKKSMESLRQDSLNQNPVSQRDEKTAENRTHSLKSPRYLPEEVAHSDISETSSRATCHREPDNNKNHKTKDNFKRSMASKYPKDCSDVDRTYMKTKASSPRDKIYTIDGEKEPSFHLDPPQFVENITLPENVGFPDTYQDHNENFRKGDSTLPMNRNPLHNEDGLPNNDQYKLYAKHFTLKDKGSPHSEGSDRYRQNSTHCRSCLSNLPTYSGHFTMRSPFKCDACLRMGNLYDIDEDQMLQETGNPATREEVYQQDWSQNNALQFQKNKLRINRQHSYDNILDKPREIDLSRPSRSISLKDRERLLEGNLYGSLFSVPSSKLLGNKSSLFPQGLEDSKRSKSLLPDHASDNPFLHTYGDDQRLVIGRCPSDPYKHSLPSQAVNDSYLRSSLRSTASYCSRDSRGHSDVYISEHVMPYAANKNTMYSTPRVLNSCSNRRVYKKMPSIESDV
Sequence of GluN1–1a/2D (Q62645 28-1323, other chains not shown): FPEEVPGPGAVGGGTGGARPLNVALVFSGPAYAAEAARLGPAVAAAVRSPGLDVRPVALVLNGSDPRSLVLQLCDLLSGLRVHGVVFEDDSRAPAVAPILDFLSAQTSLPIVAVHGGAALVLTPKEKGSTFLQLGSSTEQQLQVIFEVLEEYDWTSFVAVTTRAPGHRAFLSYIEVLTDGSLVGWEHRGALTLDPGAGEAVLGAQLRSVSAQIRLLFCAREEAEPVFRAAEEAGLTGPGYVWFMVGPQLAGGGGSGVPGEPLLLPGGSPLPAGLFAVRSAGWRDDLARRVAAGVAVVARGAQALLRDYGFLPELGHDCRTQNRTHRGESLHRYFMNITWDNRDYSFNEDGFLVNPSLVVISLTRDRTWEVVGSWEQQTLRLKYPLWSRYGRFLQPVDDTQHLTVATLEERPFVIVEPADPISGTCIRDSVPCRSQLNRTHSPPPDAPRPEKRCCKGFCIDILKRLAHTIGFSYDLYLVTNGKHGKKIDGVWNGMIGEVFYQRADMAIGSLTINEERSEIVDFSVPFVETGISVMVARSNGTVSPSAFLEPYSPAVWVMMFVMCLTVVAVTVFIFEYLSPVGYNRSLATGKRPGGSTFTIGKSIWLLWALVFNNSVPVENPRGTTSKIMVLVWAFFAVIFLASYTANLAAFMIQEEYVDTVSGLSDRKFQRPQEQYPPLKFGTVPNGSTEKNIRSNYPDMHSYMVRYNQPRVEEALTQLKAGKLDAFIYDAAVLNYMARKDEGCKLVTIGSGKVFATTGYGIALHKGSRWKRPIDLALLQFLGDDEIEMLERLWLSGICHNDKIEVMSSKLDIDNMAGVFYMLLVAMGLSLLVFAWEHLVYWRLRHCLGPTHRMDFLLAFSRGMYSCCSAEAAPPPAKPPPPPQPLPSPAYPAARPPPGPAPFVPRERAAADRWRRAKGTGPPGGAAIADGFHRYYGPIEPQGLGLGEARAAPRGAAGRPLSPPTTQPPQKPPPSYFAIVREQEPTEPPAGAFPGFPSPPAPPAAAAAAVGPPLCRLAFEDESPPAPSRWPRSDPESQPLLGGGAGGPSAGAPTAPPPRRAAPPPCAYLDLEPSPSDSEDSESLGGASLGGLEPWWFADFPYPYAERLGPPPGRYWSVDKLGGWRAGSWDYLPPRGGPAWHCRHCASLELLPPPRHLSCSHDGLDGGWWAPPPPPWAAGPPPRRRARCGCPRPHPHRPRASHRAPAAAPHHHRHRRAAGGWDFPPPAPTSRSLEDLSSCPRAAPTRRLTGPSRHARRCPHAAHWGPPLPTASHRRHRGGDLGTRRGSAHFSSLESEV

Take `CC(C(O)c1ccc(O)cc1)N1CCC(Cc2ccccc2)CC1` (centres unmarked) [ifenprodil]: the “nH (Hill coefficient)” value is listed as 1.8 in [1] (inhibition); 1.1 in [2] (inhibition, isoform 1a); 1.1 in assay [3] (inhibition, isoform 1a); 1.1 in assay [5] (inhibition). The maximal inhibition in assay [1] is 88%; in assay [2] (isoform 1a), ~ 65%; in assay [3] (isoform 1a) it was ~ 95%; in assay [4], 71.5%; in assay [5], 69%. For the same molecule, in [4], the IC50 was 129 nM.

Take `NCCCNCCCCNCCCN` [spermine]: the “Spermine modulation (% control)” value in assay [2] (pH 6.8) is reported as 233 ± 10 % control; in assay [2] (pH 7.4), 150 ± 2 % control; in assay [2] (pH 7.4, listed as Spermine) it was 150 % control; in [6] (pH 6.8) it was 95 ± 0.1 % control; in assay [6] (pH 7.4), 80 ± 1 % control; in [3] (pH 6.8) it was 585 ± 29 % control. The “Spermine modulation (% control)” value in [3] (pH 7.4) came to 211 ± 6 % control; in assay [3] (pH 7.4, listed as Spermine), 211 % control; in assay [9] (pH 6.8), 82 ± 1 % control; in assay [9] (pH 7.4), 71 ± 0.4 % control; in assay [9] (pH 7.4, listed as Spermine), 71 % control; in assay [10] (pH 6.8), 79 ± 1 % control. For the same molecule, the “Spermine modulation (% control)” value in [10] (pH 7.4) is 72 % control and 72 ± 1 % control. Also, the “Relative Imax” value in assay [2] (setting [11]) is reported as 150 ± 2%; in assay [3] (setting [11]), 211 ± 6%; in assay [9] (setting [11]), 71 ± 0.4%. Besides, the “NMDAR-EPSC peak amplitude, % of baseline” value in assay [7] (100 μM, +40 mV, P21–28 slices) is recorded as 137 ± 13 % of baseline; in [8] it was 95 ± 5 % of baseline. Moreover, in assay [7] (treatment versus baseline, paired t test, 10 μM (spermine 100 μM)), the “effect on EPSC decay time” value was “unchanged”.

The term IC50 denotes the concentration at which inhibition is half-maximal.
